assay: Particle size distribution of micronised BDP by laser diffraction (Malvern); type: physicochemical; conditions: micronised beclometasone dipropionate; volume diameter of 10% of particles
Description: The size of the particles of the active is determined by measuring the characteristic equivalent sphere diameter, known as volume diameter, by laser diffraction. In the reported examples, the volume diameter has been determined using a Malvern apparatus. However, other equivalent apparatus may be used by the skilled person in the art.
The particle size was determined by laser diffraction using a Malvern apparatus. The parameter taken into consideration was the VD in microns of 10%, 50% and 90% of the particles expressed as d(v,0.1), d(v, 0.5) and d(v, 0.9), respectively, which correspond to the mass diameter assuming a size independent density for the particles. The span [d(v,0.9)−d(v,0.1)]/d(v,0.5) is also reported. The Specific Surface Area (SSA) was determined by BET nitrogen adsorption using a Coulter SA3100 apparatus as a mean of three determinations.

| SMILES | d (v, 0.1) [μm] |
| --- | --- |
| CCC(=O)OCC(=O)[C@@]1(OC(=O)CC)[C@@H](C)C[C@H]2[C@@H]3CCC4=CC(=O)C=C[C@]4(C)[C@@]3(Cl)[C@@H](O)C[C@@]21C [Batch 1, beclometasone dipropionate] | 0.86 |
| CCC(=O)OCC(=O)[C@@]1(OC(=O)CC)[C@@H](C)C[C@H]2[C@@H]3CCC4=CC(=O)C=C[C@]4(C)[C@@]3(Cl)[C@@H](O)C[C@@]21C [Batch 2, beclometasone dipropionate] | 0.96 |
| CCC(=O)OCC(=O)[C@@]1(OC(=O)CC)[C@@H](C)C[C@H]2[C@@H]3CCC4=CC(=O)C=C[C@]4(C)[C@@]3(Cl)[C@@H](O)C[C@@]21C [Batch 3, beclometasone dipropionate] | 0.95 |
| CCC(=O)OCC(=O)[C@@]1(OC(=O)CC)[C@@H](C)C[C@H]2[C@@H]3CCC4=CC(=O)C=C[C@]4(C)[C@@]3(Cl)[C@@H](O)C[C@@]21C [Batch 4, beclometasone dipropionate] | 0.91 |

— patent US8778402B2, “Dry powder formulation comprising a corticosteroid and a beta-adrenergic for administration by inhalation” (Chiesi Farmaceutici S.p.A., priority 2012, dated 2014)
